These results are taken from patent publication US5798387A, “Amino acid derivatives” (Zaidan Hojin Biseibutsu Kagaku Kenkyu Kai, priority 1992, dated 1998).

Each structure is given as a SMILES string.

One experiment relates to T cells. As to the kind of experiment: T cell proliferation (Test 1), thymidine uptake of Concanavalin A-treated T cells. The settings on record: Rattus norvegicus, 72 h, 3 days, untreated cells = 100, read-out: Rate of stimulating proliferation of T cells. Format: cell-based, rat (female Fisher 344). The source says:
Effects of the novel amino acid derivatives of the general formula (I) on the proliferation of T cells were investigated by the following procedure.
The spleens, which had been excised in sterility from female Fisher 344 rats (12-16 weeks old, purchased from CHARLES RIVER JAPAN, INC), were squeezed in RPMI 1640 medium (a product of NISSUI PHARMACEUTICAL CO., LTD.) supplemented with 10% of fetal bovine serum, followed by passage of the resulting cell suspension through a column containing nylon wool fibres, whereby a cell suspension containing an abundant amount of T cells was obtained. This cell suspension was diluted to a level of 1×10^6 cells/ml with addition of a medium of the same composition as above. The cell-containing medium so obtained was then added with 5 μg/ml of Concanavalin A (product of Pharmacia AB), followed by incubation at 37° C. for 4 hours. Four hours later, α-methylmannoside was added to the incubated medium to give a concentration of 20 mg/ml of α-methylmannoside. After stirring the medium, cells were separated and collected therefrom by centrifugation. The collected cells were suspended at a level of 3×10^6 cells/ml in a medium of the same composition as above, followed by placing the resulting cell suspension in 100 μl portions in a 96-well microplate.
Novel amino acid derivatives at various concentrations, which are shown in Table 4, were incorporated in an amount of 100 μl as the test compounds to the respective cell suspensions in the plate, followed by incubation at 37° C. for 3 days in an incubator under air atmosphere containing 5% of carbon dioxide. Meanwhile, eighteen hours before the completion of the incubation, a solution of 10μ Ci/ml of radioactively labeled thymidine (Thymidine "6-^3 H", a product of NEN Company) was added in an amount of 10 μl to the cell suspensions under incubation. The cells after the incubation were collected on a filter paper by means of a cell harvester, washed with water and radioactivity of the cells so treated was determined by a liquid scintillation counter. The determined values of the radioactivity of the cells as treated with the test compounds were evaluated on the assumption that the determined value of the radioactivity of the cells untreated, namely tested without addition of the test compound during the incubation of cells was amounting to 100. The so evaluated values are recorded and expressed as rates (%) for stimulating the T cell proliferation which show such extent that the proliferation of T cells is enhanced by the new amino acid derivative of this invention.

Experiment [1] deals with Ehrlich ascites carcinoma. Briefly: Antitumor activity (Test 2), Ehrlich ascites carcinoma transplanted subcutaneously. Format: in vivo, mouse (ICR). The settings on record: tumor weight on day 15 vs control. As for the experimental part:
The antitumor activity of some amino acid derivatives of the general formula (I) according to this invention was tested in the following manner. A suspension of Ehrlich ascites carcinoma cells was subcutaneously injected to one of the inguinal parts of each ICR mouse to transplant 4×10^6 cells/mouse. From the seventh day after the transplantation, a test compound was intraperitoneally injected daily for 7 days at a dose of 50, 5 or 0.5 mg/kg (4 mice per treated group of mice, but 8 mice per untreated control group of mice). On the fifteenth day after the transplantation, a solid cancer was cut out and weighed. A reduction in the weight of solid cancers of the mice in each treated group of mice which was evaluated in comparison with the control group is expressed as rate of inhibiting the tumor growth (%) in Table 5 below.

Experiment [2] has as its system bone-marrow cells (hematopoietic stem cells; megakaryocytes). As to the kind of experiment: Formation of colonies of megakaryocytes from bone-marrow cells (Test 3). The settings on record: Mus musculus, Bone marrow cell, 168 h; concentration of test compound 5 μg/ml; 7 days; no addition = 100; read-out: Number of colonies of megakaryocytes. Format: cell-based, mouse (male BALB/c). On the procedure:
The activity of some amino acid derivatives of the general formula (I) according to this invention which induces proliferation of hematopoietic stem cells was tested in the following manner. Thus, bone-marrow cells had been prepared from the femurs of male BALB/c mouse (6-7 weeks old), and then a suspension of the bone-marrow cells was overlayed on "Lympholite M" (product of Cefalane Company), followed by centrifugation under 1500 g for 20 minutes. A lymphocyte fraction was collected, washed three times with "alpha MEM medium" (product of Gibco Company), and then diluted and suspended in the same medium as above to give a lymphocyte concentration of 7×10^6 cells/ml.
[…] of the resulting cell suspension, 50 μl of a solution of a test compound in physiological saline, 50 μl of a culture supernatant of WEHI-3, 100 μl of phosphate-buffered physiological saline, 50 μl of a pre-deionized 10% bovine serum albumin solution, 50 μl of an L-asparagin solution (200 μg/ml), 50 μl of a calcium chloride solution (260 μg/ml) and 50 μl of bovine plasma containing sodium citrate were combined together. The liquid mixture so obtained was poured in portions of 50 μl/well on a slide glass ("Glass Ware", product of Flaw Laboratory Company). After coagulation of the mixture, the slide glass bearing the coagulated masses was immersed in 10% FBS-added alpha MEM medium, followed by incubation at 37° C. under 5% CO2 for 7 days.
After completion of the incubation, the cells on the slide glass were immobilized with a 25% glutaraldehyde solution. In accordance with the methods proposed by Nagasawa et al. ["Zoketsu Kan Saibo (Hematopoietic Stem Cells)" compiled by takahisa Shimamaro, page 128 (The Nishimura Shoten Co., Ltd.)], the immobilized cells were stained for acetylcholinesterase activity which is specific for mouse megakaryocytes, and also the cells were stained with Mayer hematoxylin. Each cell culture so stained was dried and then sealed with a sealing agent. Under a microscope of ×100 magnification, the number of megakaryocytic colonies (i.e., the number of cells stained in an orange color) per well was counted.

With `CC(C)CC(NC(=O)C(O)C(C)C(C)O)C(=O)OCc1ccccc1` (stereo not drawn) [Compound 10], in the experiment with T cells (concentration of compound 0.1 μg/ml), the activity at 0.1 µg/mL stood at 231%. Further, the activity at 1 µg/mL with T cells (concentration of compound 1 μg/ml) worked out at 201%. In addition, the activity at 10 µg/mL in the experiment with T cells (concentration of compound 10 μg/ml) was 251%. Moreover, the entries for the “Tumor growth inhibiting rate” value in experiment [1] (5 mg/kg i.p. daily for 7 days) and in experiment [1] (50 mg/kg i.p. daily for 7 days) were 31% and 58%, respectively. Moreover, the activity at 5 µg/mL in experiment [2] turned out to be 138%.
